Experimental findings from ChEMBL document CHEMBL4024742, “Pharmaceutical Approaches to Target Antibiotic Resistance Mechanisms” (J Med Chem, 2017) are described below.

≈ marks a conversion by molar mass, not a printed value.

Assay [1] deals with Staphylococcus aureus. In words: Antibiofilm activity against methicillin-resistant Staphylococcus aureus BAA-44 at 100 uM after 24 hrs by crystal violet staining based assay. In kind it is functional. Particulars: BAA-44, 24 h.
The test system of assay [2] is Staphylococcus aureus. In words: Inhibition of biofilm formation in Staphylococcus aureus ATCC 29213 at 1.5 ug/ml after 24 hrs by MTT assay. In kind it is functional. Particulars: ATCC 29213, 24 h. Background: Formazan colour is commonly taken as a measure of viable cells.
Assay [3] relates to Staphylococcus aureus. The assay can be described thus: Inhibition of biofilm formation in Staphylococcus aureus ATCC 25923 at 1.5 ug/ml after 24 hrs by MTT assay. In kind it is functional. The conditions noted are these: ATCC 25923, 24 h.
Assay [4] has as its system Staphylococcus aureus. The assay can be described thus: Inhibition of biofilm formation in Staphylococcus aureus ATCC 657 at 1.5 ug/ml after 24 hrs by MTT assay. In kind it is functional. The conditions noted are these: ATCC 657, 24 h.
In assay [5] the test system is Staphylococcus aureus. In words: Inhibition of biofilm formation in Staphylococcus aureus ATCC 702 at 1.5 ug/ml after 24 hrs by MTT assay. In kind it is functional. The conditions noted are these: ATCC 702, 24 h.
The subject of assay [6] is Staphylococcus epidermidis. The assay can be described thus: Inhibition of biofilm formation in Staphylococcus epidermidis DSM 3269 at 1.5 ug/ml after 24 hrs by MTT assay. The assay is classed as functional. The conditions noted are these: DSM 3269, 24 h.
The test system of assay [7] is Staphylococcus epidermidis. The assay can be described thus: Inhibition of biofilm formation in Staphylococcus epidermidis RP62A at 1.5 ug/ml after 24 hrs by MTT assay. In kind it is functional.
In assay [8] the test system is Escherichia coli. In words: Antibacterial activity against multi drug-resistant Escherichia coli KG4 after 24 hrs by serial dilution method. The assay is classed as functional. The conditions noted are these: KG4, 24 h.
The test system of assay [9] is Escherichia coli. In words: Antibacterial activity against multi drug-resistant Escherichia coli KG1 after 24 hrs by serial dilution method. In kind it is functional. The conditions noted are these: KG1, 24 h.
Assay [10] relates to Escherichia coli. In words: Antibacterial activity against multi drug-resistant Escherichia coli EM5 mutant after 24 hrs by serial dilution method. In kind it is functional.
The test system of assay [11] is Escherichia coli. The assay can be described thus: Antibacterial activity against multi drug-resistant Escherichia coli EM7 mutant after 24 hrs by serial dilution method. The assay is classed as functional.
Assay [12] relates to Escherichia coli. In words: Antibacterial activity against multi drug-sensitive Escherichia coli MTCC 739 after 24 hrs by serial dilution method. The assay is classed as functional. The conditions noted are these: MTCC 739, 24 h.
Assay [13] concerns Staphylococcus aureus. The assay can be described thus: Antibacterial activity against Staphylococcus aureus ATCC 25923 after 24 hrs by broth microdilution method. The assay is classed as functional. The conditions noted are these: ATCC 25923, 24 h. In general terms: In broth dilution the organism is exposed to a series of concentrations in liquid medium.
Assay [14] deals with Staphylococcus aureus. In words: Antibacterial activity against Staphylococcus aureus 1199B after 24 hrs by broth microdilution method. In kind it is functional.
For assay [15], the system named is Staphylococcus epidermidis. The assay can be described thus: Antibacterial activity against planktonic Staphylococcus epidermidis RP62A after 24 hrs by broth microdilution method. The assay is classed as functional.
The subject of assay [16] is Staphylococcus aureus. The assay can be described thus: Antibacterial activity against planktonic Staphylococcus aureus ATCC 29213 after 24 hrs by broth microdilution method. In kind it is functional. The conditions noted are these: ATCC 29213, 24 h.
Assay [17] deals with Staphylococcus aureus. The assay can be described thus: Antibacterial activity against planktonic Staphylococcus aureus ATCC 43866 after 24 hrs by broth microdilution method. The assay is classed as functional. The conditions noted are these: ATCC 43866, 24 h.
Assay [18] has as its system Staphylococcus aureus. The assay can be described thus: Inhibition of biofilm formation in Staphylococcus aureus ATCC 43866 at 25 ug/ml after 24 hrs by MTT assay. The assay is classed as functional. The conditions noted are these: ATCC 43866, 24 h.
Assay [19] deals with Escherichia coli. In words: Potentiation of tetracycline induced-antimicrobial activity against Escherichia coli assessed as fold reduction in tetracycline MIC at 25 ug/ml after 24 hrs by broth checkerboard method. The assay is classed as functional.
Assay [20] is described as follows: Inhibition of Klebsiella pneumoniae NP6 KPC-2 expressed in Escherichia coli DH5alpha.
Assay [21] addresses T1, Quinolone resistance protein NorA (Staphylococcus aureus, UniProt P0A0J7).
T1 sequence (P0A0J7 whole entry): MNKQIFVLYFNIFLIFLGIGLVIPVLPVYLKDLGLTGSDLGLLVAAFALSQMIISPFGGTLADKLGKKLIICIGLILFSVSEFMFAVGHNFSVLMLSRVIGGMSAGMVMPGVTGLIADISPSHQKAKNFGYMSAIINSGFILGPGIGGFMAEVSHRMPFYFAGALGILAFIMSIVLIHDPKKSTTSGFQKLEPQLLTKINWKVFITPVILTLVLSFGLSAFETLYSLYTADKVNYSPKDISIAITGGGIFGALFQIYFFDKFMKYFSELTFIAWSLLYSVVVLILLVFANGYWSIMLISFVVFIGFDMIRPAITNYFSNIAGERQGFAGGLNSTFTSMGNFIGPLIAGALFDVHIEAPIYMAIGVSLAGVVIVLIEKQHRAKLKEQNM
The assay can be described thus: Inhibition of Staphylococcus aureus 1199B NorA assessed as reduction in ethidium bromide efflux by fluorescence assay.

The test system of assay [22] is Staphylococcus aureus. In words: Antibiofilm activity against methicillin-resistant Staphylococcus aureus BAA-44 after 24 hrs by crystal violet staining based assay. In kind it is functional. The conditions noted are these: BAA-44, 24 h.
In assay [23] the target is T2, Quinolone resistance protein NorA (Staphylococcus aureus) (UniProt P0A0J7).
T2 sequence (whole entry): T1 sequence (P0A0J7 whole entry)
The assay can be described thus: Inhibition of Staphylococcus aureus 1199B NorA assessed as potentiation of ciprofloxacin-induced antibacterial activity at 32 ug/ml after 24 hrs (reference value: 16 ug/ml).

As to `CCCCCc1ccc(/C=C(\C)Cn2cc(CCCCCc3c[nH]c(N)n3)nn2)cc1`, the inhibition at 100 µM in the assay with Staphylococcus aureus [1] was more than 94%.
As for `O=C(c1cc(Br)ccc1O)c1[nH]c(Br)c(Br)c1Br`, the inhibition at 1.5 µg/mL (in the assay on Staphylococcus aureus [2]; in the assay with Staphylococcus aureus [3]; in the assay with Staphylococcus aureus [4]; in the assay on Staphylococcus aureus [5]; in assay [6]; in assay [7]) was more than 60% throughout.
On to `O=C(/C=C/c1ccccc1)O[C@H]1CCC(=O)c2ccccc21`, for which the MIC against Escherichia coli [8], in the assay with Escherichia coli [9], with Escherichia coli [10], in the assay on Escherichia coli [11] and against Escherichia coli [12] was 250 to 1000 µg/mL (≈ 855 to 3420 µM) throughout.
As for `O=C(c1cc(Br)cc(Br)c1O)c1[nH]c(Br)c(Br)c1Br`, the inhibition at 1.5 µg/mL (in the assay with Staphylococcus aureus [2]; in the assay with Staphylococcus aureus [3]; in the assay with Staphylococcus aureus [4]; in the assay with Staphylococcus aureus [5]; in [6]; in [7]) was 68.5 to 100% each time.
As to `CC(C)(C)OC(=O)NCC(NC(=O)c1c[nH]c2ccccc12)c1c[nH]c2ccccc12` (stereo not drawn), the MIC against Staphylococcus aureus [13] and in the assay with Staphylococcus aureus [14] was more than 32 µg/mL in each case.
`Cc1nn(C)c([N-]C(=O)c2ccc(Cl)cc2)c1[N+]#N`: the MIC (in assay [15]; in the assay with Staphylococcus aureus [16]; in the assay on Staphylococcus aureus [17]) was 1.5 to 12.5 µg/mL (≈ 5.44 to 45.3 µM) throughout. Also, in the assay with Staphylococcus aureus [18], the inhibition at 25 µg/mL lay in the range of 69 to 96%.
For `CCCCCCCCCCCCCC(=O)O[C@H]1CCC(=O)c2ccccc21` [4-O-MYRICITOYL-ALPHA-TETRALONE], the MIC in the assay with Escherichia coli [8], against Escherichia coli [9], against Escherichia coli [10], against Escherichia coli [11] and against Escherichia coli [12] was 250 to 1000 µg/mL (≈ 671 to 2680 µM) each time.
In the case of `Cc1nn(C)c([N-]C(=O)c2ccc(Cl)cc2Cl)c1[N+]#N`, the MIC (in assay [15]; in the assay with Staphylococcus aureus [16]; with Staphylococcus aureus [17]) was 1.5 to 12.5 µg/mL (≈ 4.84 to 40.3 µM) in each case.
Turning to `O=C(c1cc(Br)ccc1O)c1[nH]c(Br)c(Cl)c1Br`, the inhibition at 1.5 µg/mL (in the assay with Staphylococcus aureus [2]; in the assay with Staphylococcus aureus [3]; with Staphylococcus aureus [4]; in the assay on Staphylococcus aureus [5]; in assay [6]; in assay [7]) was more than 60% each time.
For `COc1cc(C(=O)O[C@H]2CCC(=O)c3ccccc32)cc(OC)c1OC` [4-O-(3,4,5-TRIMETHOXYBENZOYL)-ALPHA-TETRALONE], the MIC against Escherichia coli [8], against Escherichia coli [9], against Escherichia coli [10], with Escherichia coli [11] and with Escherichia coli [12] was 250 to 1000 µg/mL (≈ 702 to 2810 µM) throughout. In addition, in the assay with Escherichia coli [19], the “fold change (FC)” value is 8.
In [20], `C[C@]1(Cn2ccnn2)[C@H](C(=O)O)N2C(=O)C[C@H]2S1(=O)=O` [TAZOBACTAM] had an IC50 of 99 µM.
For `O=C1CC[C@H](O)c2ccccc21` [(-)-4-HYDROXY-ALPHA-TETRALONE], the MIC against Escherichia coli [8], with Escherichia coli [9], in the assay on Escherichia coli [10], in the assay with Escherichia coli [11] and in the assay on Escherichia coli [12] was 250 to 1000 µg/mL (≈ 1540 to 6170 µM) in each case. In addition, in the assay with Escherichia coli [19], the “fold change (FC)” value was 4.
Consider `COC(=O)[C@H]1[C@H]2C[C@@H]3c4[nH]c5cc(OC)ccc5c4CCN3C[C@H]2C[C@@H](OC(=O)c2cc(OC)c(OC)c(OC)c2)[C@@H]1OC` [RESERPINE], for which the IC50 in assay [21] lay in the range of 9 to 14 µM.
Consider `O=C(c1cc(Cl)cc(Cl)c1O)c1[nH]c(Br)c(Br)c1Br`, for which the inhibition at 1.5 µg/mL (in the assay on Staphylococcus aureus [2]; in the assay on Staphylococcus aureus [3]; in the assay on Staphylococcus aureus [4]; in the assay with Staphylococcus aureus [5]; in [6]; in assay [7]) was 67.9 to 86.7% each time.
With `CCCCOc1cc(Br)cc(/C=C(\C)Cn2cc(CCCCCc3c[nH]c(N)n3)nn2)c1F`, the inhibition at 100 µM in the assay with Staphylococcus aureus [1] was more than 94%. The molecule further had an IC50 in the assay with Staphylococcus aureus [22] of 4.5 µM.
Consider `O=C(NC(C(=O)O)c1c[nH]c2ccc(Br)cc12)c1c[nH]c2ccc(Br)cc12` (stereo not drawn), for which the MIC with Staphylococcus aureus [13] was more than 32 µg/mL; against Staphylococcus aureus [14], more than 32 µg/mL; in assay [23] it was 4 µg/mL.

A word on the inhibition: it is the drop in the measured response relative to a control, in per cent. Lower therefore signals a weak effect. The term IC50 denotes the concentration at which inhibition is half-maximal.
